Experimental findings from patent publication US11697833B2, “Antimicrobial susceptibility testing device and method for use with portable electronic device” (THE REGENTS OF THE UNIVERSITY OF CALIFORNIA, priority 2016, dated 2023) are described below.

The assay deals with Klebsiella pneumoniae. As to the kind of experiment: Broth microdilution antimicrobial susceptibility testing (AST) of patient isolates, 96-well plate read for turbidity. To be noted: clinical patient isolate plates, 24 hours at 37° C, plate ID 1 (AM), 5 (A/S), 8 (MPM); for Diagnostician Decision (drug susceptibility interpretation): expert diagnostician visual reading (gold standard); for Automated System Decision (drug susceptibility interpretation): mobile phone-based AST plate reader, misdiagnosed cases. In kind it is cell-based. An excerpt:
To determine whether a particular well 22 contains sufficient turbidity or not, a threshold-based approach is used to determine the cut-off transmittance value for each well 22. As the turbidity increases, the light transmittance through the well decreases. This operation is illustrated as operation 230 in FIGS. 4 and 5. In particular, thresholding is applied to average normalized well intensities of sample-containing wells to determine whether a particular well 22 is classified as “turbid” or “not turbid.” To choose an accurate threshold value for each well 22, the normalized transmittance values of wells 22 with no turbidity are extracted from a training set of blank reference plates 20 (i.e., plates with drugs but no microbes). For example, sixty (60) such plates that are blanks can be imaged to determine the mean transmittance at each well 22. […] In one embodiment, from this set of normalized transmittance values from wells 22 with no turbidity, a threshold of two times the standard deviation below the mean of that particular well 22 is used to determine whether a given test or sample-containing well 22 is statistically likely to have microbial growth represented by turbidity. Those wells 22 that have an averaged, normalized intensity level that is lower than two times the standard deviation below the mean “not turbid” value are classified as “turbid” while wells 22 that don't meet that criteria are classified as “not turbid.” Of course, other measures may be used for defining the cutoff or threshold. For example, fractional standard deviation may also be used for a cutoff or threshold. In addition, the threshold could also include a numerical cutoff of intensity or other multiple of the standard deviation.
With reference to FIG. 3, after the wells 22 are classified as “turbid” or “not turbid,” the software 112 generates MIC values and susceptibility characterizations for the drug(s) on the AST plate 20. For a given type of AST plate 20 (i.e., Gram-negative or Gram-positive), the MIC value for each drug is determined by finding the lowest concentration of drug in a drug-specific set of wells 22 that contains no turbidity. More specifically, the MIC value is based on the adjacent, well 22 that is classified as not turbid as this well represents the lowest concentration of antibiotic that prevented bacterial growth (i.e. the MIC). Depending on the selected microbe of interest, drug susceptibility interpretations are automatically made by the software 112 based on the MIC for each drug. FIG. 7 illustrates the layout of a map or table 114 for the AST plate 20 with susceptibility characterizations for each drug at different concentration levels. The map or table 114 with susceptibility characterizations for each drug at different concentration levels may be stored in a database (e.g., database 109 or other local storage device) as a look-up table or the like. In some embodiments, the map or table 114 for each different bacterium may be stored in the database 109 or local storage device. For example, in looking at FIG. 7 with the example of the drug ampicillin (AM), various concentrations (μg/ml) of this drug is present within wells B1, C1, D1, E1 along with a growth medium. If wells B1 and C1 were classified as turbid while wells D1 and E1 were classified as not turbid, the MIC reading would be 16 μg/ml (e.g., looking at concentration in well D1). Likewise, the susceptibility characterization would be classified as “indeterminate” using the map or table 114. […]
(Dilution methods test growth across graded concentrations, often in twofold steps.)

As for `CC1(C)S[C@@H]2[C@H](NC(=O)[C@H](N)c3ccccc3)C(=O)N2[C@H]1C(=O)O` [AM, Ampicillin], the “Diagnostician Decision (drug susceptibility interpretation)” value (shortened to “Diagnostician Decision”) is given as “Indeterminate” and the “Automated System Decision (drug susceptibility interpretation)” value (from here on “Automated System Decision”) was “Resistant”.

In the case of `C[C@@H](O)[C@H]1C(=O)N2C(C(=O)O)=C(S[C@@H]3CN[C@H](C(=O)N(C)C)C3)[C@H](C)[C@H]12` [MPM, Meropenem], the “Diagnostician Decision” value is listed as “Susceptible” and the “Automated System Decision” value is “Resistant”.

In the case of Ampicillin-Sulbactam [A/S], the “Diagnostician Decision” value is listed as “Indeterminate” and the “Automated System Decision” value is recorded as “Resistant”.
